Reference: PubChem BioAssay AID330 (DTP/NCI, 2004)
“And” between values parts separate entries of the source, which are not always exact repeats. Equal entries are not always repeated. Toxic doses and inconclusive results are not listed. The calls were made as follows: active = survival T/C of 150% or more; inactive = T/C below 125% in these data.

Test system: P388 leukemia ip, CD2F1 mice, survival T/C
Assay: NCI In Vivo Anticancer Drug Screen. Data for tumor model P388 Leukemia (intraperitoneal) in CD2F1 (CDF1) mice
Details: endpoint: median survival time, higher = longer survival
Summary of the method: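 Mice carrying the transplanted tumor received test compound or vehicle. Survival was recorded in each group, and the value is the treated-group measurement divided by that of the vehicle-treated control group.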

[1] = dose: 25.0 mg/kg/injection, schedule: Q01DX009 (ip), vehicle: saline
[2] = dose: 50.0 mg/kg/injection, schedule: Q01DX009 (ip), vehicle: saline
[3] = dose: 100.0 mg/kg/injection, schedule: Q01DX009 (ip), vehicle: saline
[4] = dose: 200.0 mg/kg/injection, schedule: Q01DX009 (ip), vehicle: saline
[5] = dose: 50.0 mg/kg/injection, schedule: Q01DX005 (ip), vehicle: saline with Tween-80
[6] = dose: 100.0 mg/kg/injection, schedule: Q01DX005 (ip), vehicle: saline with Tween-80
[7] = dose: 200.0 mg/kg/injection, schedule: Q01DX005 (ip), vehicle: saline with Tween-80
[8] = dose: 50.0 mg/kg/injection, schedule: Q01DX009 (ip), vehicle: Klucel (hydroxypropylcellulose) (HPC)
[9] = dose: 100.0 mg/kg/injection, schedule: Q01DX009 (ip), vehicle: Klucel (hydroxypropylcellulose) (HPC)
[10] = dose: 200.0 mg/kg/injection, schedule: Q01DX009 (ip), vehicle: Klucel (hydroxypropylcellulose) (HPC)
[11] = dose: 400.0 mg/kg/injection, schedule: Q01DX009 (ip), vehicle: Klucel (hydroxypropylcellulose) (HPC)
[12] = dose: 12.5 mg/kg/injection, schedule: Q01DX009 (ip), vehicle: saline
[13] = dose: 60.0 mg/kg/injection, schedule: Q01DX005 (ip), vehicle: saline with Tween-80
[14] = dose: 120.0 mg/kg/injection, schedule: Q01DX005 (ip), vehicle: saline with Tween-80

Measured: T/C

O=[N+]([O-])c1cc(NC(=S)SC2CCCCC2)ccc1Cl
inactive: [1] 107 % of control and 108 % of control | [2] 100 % of control and 104 % of control and 93 % of control | [3] 102 % of control and 110 % of control and 90 % of control | [4] 100 % of control and 104 % of control and 122 % of control

CC(=O)NC1CCC(C2CCCCC2)CC1C1CCCCC1 (stereo unspecified)
inactive: [5] 107 % of control | [6] 98 % of control | [7] 102 % of control

O=C1C=CC(=O)C(C2OC(=O)C(Br)=C2Br)=C1 (stereo unspecified)
inactive: dose: 50.0 mg/kg/injection, schedule: Q01DX005 (ip), vehicle: distilled water + Tween-80 114 % of control | dose: 100.0 mg/kg/injection, schedule: Q01DX005 (ip), vehicle: distilled water + Tween-80 115 % of control

O=C1c2cccc3c([N+](=O)[O-])ccc(c23)C(=O)N1CCCN1CCOCC1
inactive: [5] 114 % of control | [6] 116 % of control

S=C1OCCO1
inactive: [8] 106 % of control | [9] 102 % of control | [10] 100 % of control | [11] 105 % of control

COc1cc2ccnc(C3(OC(=O)c4ccccc4)CCN(CCc4ccccc4)CC3)c2cc1OC
inactive: [12] 96 % of control | [1] 92 % of control | dose: 50.0 mg/kg/injection, schedule: Q01DX009 (ip), vehicle: saline with Tween-80 96 % of control

COc1ccc(Cc2cc(N=O)c(OC)cc2O)cc1
inactive: [5] 90 % of control | [6] 87 % of control

c1ccc2cc3n[se]nc3cc2c1
inactive: [13] 100 % of control | [14] 90 % of control

O=S(=O)(NCc1ccccc1)c1ccccc1
inactive: dose: 12.5 mg/kg/injection, schedule: Q01DX009 (ip), vehicle: Klucel (hydroxypropylcellulose) (HPC) 104 % of control | dose: 25.0 mg/kg/injection, schedule: Q01DX009 (ip), vehicle: Klucel (hydroxypropylcellulose) (HPC) 94 % of control | [8] 95 % of control | [9] 104 % of control | [10] 106 % of control

CCCCCCCCCc1ccc(OC(=O)CCC)cc1
inactive: [9] 102 % of control | [10] 97 % of control | [11] 99 % of control

Nc1nc(N)nc(-c2cc(Br)c(N)c(Br)c2)n1
inactive: [5] 95 % of control | [6] 101 % of control | [7] 93 % of control

O=[N+]([O-])c1ccc(/C(=C\c2ccc(-c3ccccc3)o2)S(=O)(=O)c2ccccc2)o1
inactive: [12] 89 % of control | [1] 89 % of control

O=C1CSc2nc3ccc(Br)cc3c(=O)n21
inactive: [5] 100 % of control | [6] 95 % of control | [7] 111 % of control

CCN=c1cc2oc3cc(NCC)c(C)cc3c(-c3ccccc3C(=O)OCC)c-2cc1C
inactive: dose: 0.4 mg/kg/injection, schedule: Q01DX005 (ip), vehicle: saline with Tween-80 110 % of control | dose: 0.8 mg/kg/injection, schedule: Q01DX005 (ip), vehicle: saline with Tween-80 116 % of control | dose: 1.6 mg/kg/injection, schedule: Q01DX005 (ip), vehicle: saline with Tween-80 119 % of control

CC1=C/C(=N\N2CCOCC2)C(C(O)(C(F)(F)F)C(F)(F)F)C(C)(C)C1 (stereo unspecified)
inactive: [8] 96 % of control | [9] 102 % of control | [10] 105 % of control

CCOC(=O)c1c(C)c(C(=O)OCC)n(C)c1C=O
inactive: dose: 100.0 mg/kg/injection, schedule: Q01DX009 (ip), vehicle: saline with Tween-80 97 % of control | dose: 200.0 mg/kg/injection, schedule: Q01DX009 (ip), vehicle: saline with Tween-80 97 % of control | dose: 400.0 mg/kg/injection, schedule: Q01DX009 (ip), vehicle: saline with Tween-80 96 % of control

CCCCOP(O)(=S)OCCCC.[Y]
inactive: dose: 25.0 mg/kg/injection, schedule: Q01DX009 (ip), vehicle: saline + alcohol 98 % of control | dose: 50.0 mg/kg/injection, schedule: Q01DX009 (ip), vehicle: saline + alcohol 99 % of control | dose: 100.0 mg/kg/injection, schedule: Q01DX009 (ip), vehicle: saline + alcohol 98 % of control | dose: 100.0 mg/kg/injection, schedule: Q04DX002 (ip), vehicle: saline with Tween-80 102 % of control | dose: 200.0 mg/kg/injection, schedule: Q01DX009 (ip), vehicle: saline + alcohol 91 % of control | dose: 200.0 mg/kg/injection, schedule: Q04DX002 (ip), vehicle: saline with Tween-80 96 % of control | dose: 400.0 mg/kg/injection, schedule: Q04DX002 (ip), vehicle: saline with Tween-80 96 % of control

COc1cc(NCCCCCNC(C)C(C)C)c2ncccc2c1 (stereo unspecified)
inactive: dose: 12.5 mg/kg/injection, schedule: Q01DX005 (ip), vehicle: saline with Tween-80 93 % of control | dose: 25.0 mg/kg/injection, schedule: Q01DX005 (ip), vehicle: saline with Tween-80 95 % of control | [5] 100 % of control and 96 % of control

CN(C)B(N(C)C)N(C)C
inactive: [13] 101 % of control | [14] 102 % of control

NCCCCC(N)C(=O)O (stereo unspecified)
inactive: [2] 104 % of control | [3] 100 % of control | [4] 94 % of control

c1ccc(N=Nc2ccc3ns[s+]c3c2)cc1
inactive: [13] 92 % of control | [14] 95 % of control | dose: 240.0 mg/kg/injection, schedule: Q01DX005 (ip), vehicle: saline with Tween-80 103 % of control

Cc1ccsc1C(=O)c1ccccc1[N+](=O)[O-]
inactive: dose: 50.0 mg/kg/injection, schedule: Q01DX005 (ip), vehicle: Klucel (hydroxypropylcellulose) (HPC) 94 % of control | dose: 100.0 mg/kg/injection, schedule: Q01DX005 (ip), vehicle: Klucel (hydroxypropylcellulose) (HPC) 94 % of control | dose: 200.0 mg/kg/injection, schedule: Q01DX005 (ip), vehicle: Klucel (hydroxypropylcellulose) (HPC) 100 % of control

CC(=O)OCC1OC(n2ccc3c(=O)[nH]c(=O)[nH]c32)C(OC(C)=O)C(OC(C)=O)C1OC(C)=O (stereo unspecified)
inactive: dose: 100.0 mg/kg/injection, schedule: Q01DX001 (ip), vehicle: saline with Tween-80 104 % of control | dose: 200.0 mg/kg/injection, schedule: Q01DX001 (ip), vehicle: saline with Tween-80 99 % of control | dose: 400.0 mg/kg/injection, schedule: Q01DX001 (ip), vehicle: saline with Tween-80 100 % of control

COC(=O)C1=CO[C@@H](OC2OC(CO)C(O)C(O)C2O)[C@H]2[C@@H](C)[C@@H](O)[C@@H](O)[C@@H]12 (stereo partly specified)
inactive: dose: 5.25 mg/kg/injection, schedule: Q01DX005 (ip), vehicle: Klucel (hydroxypropylcellulose) (HPC) 100 % of control | dose: 10.5 mg/kg/injection, schedule: Q01DX005 (ip), vehicle: Klucel (hydroxypropylcellulose) (HPC) 95 % of control | dose: 21.0 mg/kg/injection, schedule: Q01DX005 (ip), vehicle: Klucel (hydroxypropylcellulose) (HPC) 104 % of control | dose: 42.0 mg/kg/injection, schedule: Q01DX005 (ip), vehicle: Klucel (hydroxypropylcellulose) (HPC) 99 % of control

CN1CCC/C1=N\C(=Nc1ccccc1)N1CCCC1
inactive: dose: 6.25 mg/kg/injection, schedule: Q01DX005 (ip), vehicle: saline 105 % of control | dose: 12.5 mg/kg/injection, schedule: Q01DX005 (ip), vehicle: saline 102 % of control | dose: 25.0 mg/kg/injection, schedule: Q01DX005 (ip), vehicle: saline 103 % of control

CNC(=O)NC(c1cc(OC)c(OC)c(OC)c1)c1cc2c(cc1O)OCO2 (stereo unspecified)
inactive: dose: 30.0 mg/kg/injection, schedule: Q01DX005 (ip), vehicle: Klucel (hydroxypropylcellulose) (HPC) 89 % of control | dose: 60.0 mg/kg/injection, schedule: Q01DX005 (ip), vehicle: Klucel (hydroxypropylcellulose) (HPC) 87 % of control and 92 % of control | dose: 240.0 mg/kg/injection, schedule: Q01DX005 (ip), vehicle: Klucel (hydroxypropylcellulose) (HPC) 87 % of control
